Test results: patent publication US20240139190A1, “NOVEL ANTIPARASITIC COMPOUNDS AND METHODS” (The Board of Regents of The University of Texas System, priority 2019, published 2024)
Read-outs that look alike come from different tables or passages of the source.

How the values were obtained:
Assay type in all cases: cell-based, Leishmania amazonensis
[1] = system: L. amazonensis axenic amastigotes; assay: alamarBlue viability / concentration-response assay, axenic amastigotes; details: 72 h, axenic amastigotes, read-out: EC50^72 h against L. amazonensis axenic amastigotes
Procedure: Leishmania amazonensis axenic amastigotes (100 μL, 2×10^6 cells/mL) were added to 96-multiwell plates containing 100 μL of amastigote culture medium with an appropriate compound dilution series. 0.1% DMSO (no drug) served as a positive control (100%), and 5 μM amphotericin B served as a negative growth control (0%). Only internal wells were used to minimize edge effects from evaporation. Axenic amastigotes were incubated at 32° C. with a compound/drug for 72 h prior to measurement. Similarly, the cytotoxicity of each compound was determined against RAW 264.7 cells and HepG2 cell lines, following 72 h incubation at 37° C. (promastigotes at 26° C.).
10% alamarBlue® (Thermo Fisher Scientific) was used to measure the growth of both parasite and mammalian cells. Conversion from a blue oxidized state to a pink reduced state was assessed visually at 6 hr. The fluorescence signal was measured with a BioTek Synergy H1 plate reader (530 nm excitation, 570 nm emission). For bioluminescence assays using L. amazonensisluc, relative luminescence units (RLU) were measured using Britelite Plus (PerkinElmer, USA). Luminescence produced by this luciferase reaction is proportional to the amount of luciferase-expressing, viable L. amazonensisluc. Following five-minute incubation at room temperature, the luminescence was measured with a BioTek Synergy H1 plate reader.
All experiments were conducted as three technical triplicates on the same plate, with at least three independent biological repeats of each plate performed. For all assays, percent growth was expressed as a proportion of the untreated (positive) control (i.e. 100%) and plotted against drug/compound concentration. The concentration was then log10 transformed and EC50 values were determined using nonlinear regression (sigmoidal dose-response/variable slope equation) in GraphPad Prism v5.0 (GraphPad Software, Inc., San Diego, CA).
To identify antileishmanial compounds, a microplate-based alamarBlue® assay was used to quickly triage the 400 drug-like compounds available in the MMV Pathogen Box collection. […] A three-step process was used to screen the Pathogen Box: 1) identify hits against axenic amastigotes, 2) confirm the inhibitory concentrations of these hits against axenic amastigotes, 3) evaluate hits for potency against intracellular parasites using fluorescence and bioluminescence-based intracellular assays. The MMV Pathogen Box resource was tested at two concentrations (5 μM and 1 μM, 72 h endpoint) on axenic amastigotes.
Hits were defined as compounds that, at a concentration of 1 μM, decreased the relative fluorescence intensity signal to ≤70% of that produced by parasites incubated in vehicle (0.06% DMSO) only (FIG. 9).

[2] = system: intracellular L. amazonensis amastigotes; assay: Intramacrophage bioluminescence assay with luciferase-expressing L. amazonensis; details: Leishmania amazonensis, RAW264.7, 72 h, read-out: EC50^72 h against intracellular L. amazonensis amastigotes
Procedure: Intracellular EC50s were estimated with L. amazonensisluc parasites. Briefly, RAW 264.7 cells or BM primary Mϕs were starved overnight, then infected with metacyclic promastigotes at a Multiplicity of Infection (MOI) of 15 and incubated for another 24 h at 37° C. The plates containing infected RAW 264.7 cells/BM primary M4s were washed five times with serum-free DMEM. Serially diluted compounds were added, and plates were incubated at 37° C. for 72 hrs. Bioluminescence signal was measured as described above.
RAW 264.7 cells were used to perform a bioluminescence assay with transgenic luciferase-expressing L. amazonensis (FIG. 1C).

[3] = system: L. amazonensis promastigotes and amastigotes; assay: Tubulin intensity by confocal immunofluorescence microscopy; details: 24 h at EC50^72 h
Procedure: Promastigotes or amastigotes were treated with the indicated compound concentrations and allowed to adhere to poly-L-lysine coated plates. All cells were fixed with 4% paraformaldehyde and permeabilized/blocked with 0.01% Triton X-100 and 2% BSA in PBS. Promastigotes and amastigotes were incubated with mouse anti-gp46 or anti-p8, respectively at 1:50 or 1:1000 and rat anti-alpha-tubulin antibody at 1:1000. Samples were then probed with A568 anti-mouse and […] secondary antibodies (Molecular Probes). DNA was labeled with Hoescht. Samples were visualized on a Zeiss LSM 880 Inverted confocal Airyscan microscope at 63×; full Z-thicknesses through parasites were obtained. […] For microscopic analysis of mitotic arrest, at least 200 parasites were analyzed per condition per experiment after 48 hrs incubation at compounds' EC50, and the average plus standard error for three experiments was calculated. Representative images were selected from the maximal intensity projections and linearly processed in Adobe Photoshop CS6.
One reason why MMV676477 might affect parasite cell division is that, like paclitaxel, it might affect microtubule polymerization, either directly or indirectly. The degree to which MMV676477 affected microtubules polymerization in cells was examined. […] Centrifugation of these extracts allowed separation of insoluble polymeric (pellet) and soluble dimeric (supernatant) tubulin. […] The intensity of α-tubulin staining was examined by normalizing it to the intensity of a membrane protein (gp46 for promastigotes in FIG. 4D; p8 for amastigotes in FIG. 4E).

SMILES: CCc1c(C)nc(-n2nc(C)cc2NC(=O)c2ccccc2SC)[nH]c1=O [MMV676477, N-(1-(5-Ethyl-4-methyl-6-oxo-1,6-dihydropyrimidin-2-yl)-3-methyl-1H-pyrazol-5-yl)-2-(methylthio)benzamide]
- EC50 [1]: 0.078 µM
- EC50 ([1]; Leishmania amazonensis): 0.079 µM
- EC50 [2]: 0.51 µM
- tubulin intensity over control (DMSO-treated) [3]: significant two-fold increase in tubulin intensity
